Literature values in US20070043054A1, “Enzyme cofactor combination for supplementing pyruvate dehydrogenase and alpha ketogluterate dehydrogenase complexes” (priority 2004, published 2007).

Tests used:
[1] = for stability in aqueous solution: neutral or alkaline solutions

Row | Compound | temperature up to which the dry form is stable ([1]; dry form) | solubility in water | stability in aqueous solution [1] | stability to dry heat [1] | solubility in alkali (alkali) | solubility in organic solvents (organic solvents)
1 | O=C(O)c1cccnc1 [niacin] | about 60 °C | – | – | – | – | –
2 | Cc1ncc(C[n+]2csc(CCO)c2C)c(N)n1 [Thiamine] | – | water-soluble | rapidly broken down in neutral or alkaline solutions | comparatively stable to dry heat | – | –
3 | NC(=O)c1cccnc1 [Niacinamide] | – | soluble in water and ethanol | stable for a short period when autoclaved | – | – | –
4 | Cc1cc2nc3c(=O)[nH]c(=O)nc-3n(C[C@H](O)[C@H](O)[C@H](O)CO)c2cc1C [Riboflavin] | – | very slightly soluble in water | stable to oxidizing agents in strong mineral acids and in neutral aqueous solution | stable to dry heat | soluble in alkali | insoluble in most organic solvents
